Source: patent publication US6441023B1 (American Home Products Corporation, priority 1997, dated 2002)

How the values were obtained:
MMP 13 [1] = biological target: T1, MMP 13 (Homo sapiens, UniProt P45452); assay: MMP 13 inhibition (HTS); assay type: biochemical
TACE = biological target: T2, TACE (Homo sapiens, UniProt P78536); assay: Procedure for measuring TACE inhibition; assay type: biochemical; details: for IC50: read-out: TACE IC 50
T2 construct: purchased Immunex
Experimental: Using 96-well black microtiter plates, each well receives a solution composed of 10 μL TACE (Inmunex, final concentration 1 μg/mL), 70 μL Tris buffer, pH 7.4 containing 10% glycerol (final concentration 10 mM), and 10 μL of test compound solution in DMSO ([…], DMSO concentration <1%) and incubated for 10 minutes at room temperature. The reaction is initiated by addition of a fluorescent peptidyl substrate (final concentration 100 μM to each well and then shaking on a shaker for 5 sec.
The reaction is read (excitation 340 nm, emission 420 nm) for 10 min. and the increase in fluorescence over time is plotted as a linear line. The slope of the line is calculated and represents the reaction rate.
The mean (xtsem) of the control rate is calculated and compared for statistical significance (p<0.05) with drug-treated rates using Dunnett's multiple comparison test.

MMP 1 = biological target: T3, MMP 1 (Homo sapiens, UniProt P03956); assay: In vitro collagenase assay (human recombinant fibroblast collagenase); assay type: biochemical; details: for inhibition at 10 µM: read-out: MMP 1 % inhibition at 10 micromolar (*); for IC50: read-out: MMP 1 IC 50
T3 construct: human recombinant fibroblast collagenase (truncated, mw=18,828, WAR, Radnor)
T3 sequence (P03956 100-269 limits assumed): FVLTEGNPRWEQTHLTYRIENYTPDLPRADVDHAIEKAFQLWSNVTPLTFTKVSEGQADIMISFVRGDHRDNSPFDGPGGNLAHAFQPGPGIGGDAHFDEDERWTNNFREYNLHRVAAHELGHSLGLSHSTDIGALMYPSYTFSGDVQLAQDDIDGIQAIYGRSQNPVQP
Experimental: The assay is based on the cleavage of a peptide substrate ((Dnp-Pro-Cha-Gly-Cys(iNe)-His-Ala-Lys(NMa)-NH2), Peptide International, Inc.) by collag,enase releasing the fluorescent NMa group which is quantitated on the fluorometer. Dnp quenches the NiIa fluorescence in the intact substrate. […] Substrate is dissolved in methanol and stored frozen in 1 mM aliquots. Collagenase is stored frozen in buffer in 25 µM aliquots. For the assay, substrate is dissolved in HCBC buffer to a final concentration of 10 μM and collagenase to a final concentration of 5 nM. Compounds are dissolved in methanol, DMSO, or HCBC. The methanol and DMSO are diluted in HCBC to <1.0%. Compounds are added to the 96 well plate containing enzyme and the reaction is started by the addition of substrate.
The slope of the line is calculated and represents the reaction rate.
The mean (x±sem) of the control rate is calculated and compared for statistical significance (p<0.05) with drug-treated rates using Dunnett's multiple comparison test.

MMP 9 = biological target: T4, MMP 9 (Homo sapiens, UniProt P14780); assay: In vitro gelatinase assay (human neutrophil gelatinase B); assay type: biochemical; details: read-out: MMP 9 IC 50
T4 construct: from tissue; host or cells: human neutrophils
Experimental: The assay is based on the cleavage of the thiopeptide substrate ((Ac-Pro-Leu-Gly(2 mercapto-4 methyl-pentanoyl)-Leu-Gly-OEt), Bachem Bioscience) by the enzyme, gelatinase, releasing the substrate product which reacts calorimetrically with DTNB ((5,5′-dithio-bis(2-nitro-benzoic acid)). The enzyme activity is measured by the rate of the color increase.
The thiopeptide substrate is made up fresh as a 20 mM stock in 100% DMSO and the DTNB is dissolved in 100% DMSO as a 100 mM stock and stored in dark at room temperature. Both the substrate and DTNB are diluted together to 1 mM with substrate buffer (50 mM HEPES pH 7.5, 5 mM CaCl2) before use. The stock of human neutrophil gelatinase B is diluted with assay buffer (50 mnM HEPES pH 7.5, 5 mM CaCl2, 0.02% Brij) to a final concentration of 0.15 mnM.
The increase in OD405 is plotted and the slope of the line is calculated which represents the reaction rate.

MMP 13 [2] = biological target: T1, MMP 13; assay: MMP 13 inhibition (manual); assay type: biochemical; details: read-out: MMP 13 IC 50

T4 sequence (P14780 94-707): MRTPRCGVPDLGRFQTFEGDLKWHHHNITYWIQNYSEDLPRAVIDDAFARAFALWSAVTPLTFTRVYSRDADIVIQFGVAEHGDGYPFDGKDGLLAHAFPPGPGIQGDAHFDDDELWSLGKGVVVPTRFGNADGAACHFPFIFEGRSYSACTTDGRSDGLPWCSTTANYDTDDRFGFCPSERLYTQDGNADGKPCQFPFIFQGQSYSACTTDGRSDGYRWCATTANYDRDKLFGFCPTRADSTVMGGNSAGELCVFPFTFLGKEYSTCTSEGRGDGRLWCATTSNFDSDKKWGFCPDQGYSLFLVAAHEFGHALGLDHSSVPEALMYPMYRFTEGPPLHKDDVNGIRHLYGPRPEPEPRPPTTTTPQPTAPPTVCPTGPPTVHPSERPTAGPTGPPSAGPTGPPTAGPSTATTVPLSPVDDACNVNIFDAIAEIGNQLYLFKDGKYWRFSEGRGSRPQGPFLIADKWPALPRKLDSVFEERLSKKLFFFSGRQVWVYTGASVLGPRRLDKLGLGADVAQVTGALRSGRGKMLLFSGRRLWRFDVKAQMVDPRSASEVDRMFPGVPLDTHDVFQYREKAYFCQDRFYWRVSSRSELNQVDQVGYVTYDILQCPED
T2 sequence (P78536 215-824): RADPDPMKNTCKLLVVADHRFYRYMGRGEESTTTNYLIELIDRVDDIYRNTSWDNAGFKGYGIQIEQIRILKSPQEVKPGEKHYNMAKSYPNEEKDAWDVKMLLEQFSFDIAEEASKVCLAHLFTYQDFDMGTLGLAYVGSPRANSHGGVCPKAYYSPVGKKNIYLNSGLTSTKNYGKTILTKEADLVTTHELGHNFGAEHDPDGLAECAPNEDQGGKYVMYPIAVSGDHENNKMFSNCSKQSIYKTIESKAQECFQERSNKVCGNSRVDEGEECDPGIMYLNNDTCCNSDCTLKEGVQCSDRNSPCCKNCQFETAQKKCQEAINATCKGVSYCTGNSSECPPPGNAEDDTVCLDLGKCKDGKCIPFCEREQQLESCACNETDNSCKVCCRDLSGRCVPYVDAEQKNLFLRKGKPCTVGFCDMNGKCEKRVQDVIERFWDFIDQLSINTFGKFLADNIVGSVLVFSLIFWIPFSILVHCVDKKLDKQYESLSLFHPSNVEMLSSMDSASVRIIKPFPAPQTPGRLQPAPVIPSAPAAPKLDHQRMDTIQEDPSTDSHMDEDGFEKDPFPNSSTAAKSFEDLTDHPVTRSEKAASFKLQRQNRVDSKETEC

Q: For “2-(4-Acetylamino-benzenesufanyl)-N-hydroxy-3-phenyl-propionarnide [Example 129]”, which “MMP 13 % inhibition at 0.2 μM (HTS)” value (MMP 13 [1]) is on record?
A: Its value is 90%.

Q: Which melting point does the source give for `CCCC(Cc1ccc(OCCN2CCOCC2)cc1)(C(=O)NO)S(=O)(=O)c1ccc(OC)cc1` (centres unmarked) [Example 35, 2-(4-Methoxy-benzenesulfonyl)-2-[4-(2-morpholin-4-yl-ethoxy)-benzyl]-pentanoic acid hydroxyamide] here?
A: The melting point was 101 °C.

Q: What about the IC50 (TACE) of the same compound?
A: Its IC50 is 44.9 nM.

Q: With `COc1ccc(S(=O)(=O)C(Cc2cccnc2)(CC(C)C)C(=O)NO)cc1` (centres unmarked) [Example 66, 2-(4-Methoxy-benzenesulfonyl)-4-methyl-2-pyrdin-3-yh nethyl-pentoic acid hydroxyamide] as the compound, how does the melting point read?
A: The melting point was 78 °C.

Q: With `CC#CCC(Cc1cccnc1)(C(=O)NO)S(=O)(=O)c1ccc(F)cc1` (centres unmarked) [Example 76, 2-(4-Fluoro-benzenesulfonyl)-2-pyridin-3-ylmethyl-hex4-ynoic acid hydroxyamide] as the compound, how does the melting point read?
A: The melting point was 150 °C.

Q: For `CCCCCC#CCC(Cc1cccnc1)(C(=O)NO)S(=O)(=O)c1ccc(F)cc1` (centres unmarked) [Example 77, 2-(4-Fluoro-benzenesulfonyl)-2-pyridin-3-ylmethyl-decfynoic acid hydroxyamide], which melting point is on record?
A: The melting point was 123 to 124 °C.

Q: With `COc1ccc(S(=O)(=O)C2(C(=O)NO)CCN(Cc3ccccc3)CC2)cc1` [Example 83, 1-Benzyl-4-(4-methoxy-benzenesulfonyl)-piperidine-4carboxylic Acid hydroxyamide] as the compound, how does the melting point read?
A: Its melting point is 90 to 95 °C.

Q: Which inhibition at 1 µM (TACE; read-out: TACE % inhibition at 1 µM) does the source give for `CC(C)C(SCCc1ccccc1)C(=O)NO` (centres unmarked) [Example 117, N-Hydroxy-3-methyl-2-phenethylsulfanyl-butyramide] here?
A: Its inhibition at 1 µM is 8.1%.

Q: And the inhibition at 0.2 µM (MMP 13 [1]; read-out: MMP 13 % inhibition at 0.2 μM (HTS), 0.2 μM)?
A: Its inhibition at 0.2 µM is 7%.

Q: With `O=C(CCC(C(=O)NO)[S+]([O-])c1ccc(Br)cc1)NO` (centres unmarked) [Example 135, 4-Hydroxycarbamoyl-4-(4-bromo-benzenesulfinyl)-butyric acid hydfoxyamide] as the compound, how does the “MMP 13 % inhibition at 0.2 μM (HTS)” value (MMP 13 [1]) read?
A: The value was 79%.

Q: For `O=C(CCC(C(=O)NO)[S+]([O-])c1ccccc1C(F)(F)F)NO` (centres unmarked) [Example 138, 4-Hydroxycarbamoyl-4-(2-triuoromethyl-benzenesulfmyl)-butyric acid hydroxyamide], which “MMP 13 % inhibition at 0.2 μM (HTS)” value (MMP 13 [1]) is on record?
A: The value was 20%.

Q: For `O=C(CCC(C(=O)NO)S(=O)(=O)c1ccccc1C(F)(F)F)NO` (centres unmarked) [Example 139, 4-Hydroxycarbamoyl-4-(2-trifiuoromethyl-benzenesulfonyl)-butyric acid hydroxyamide], which “MMP 13 % inhibition at 0.2 μM (HTS)” value (MMP 13 [1]) is on record?
A: The value was 8%.

Q: Which “MMP 13 % inhibition at 0.2 μM (HTS)” value (MMP 13 [1]) does the source give for `C[S+]([O-])c1ccc([S+]([O-])C(COCc2ccccc2)C(=O)NO)cc1` (centres unmarked) [Example 147, 3-Benzyloxy-N-hydroxy-2-(4-methanesulfinyl-benzenesulfmyl)-propionamide] here?
A: Its value is 73%.

Q: Which “MMP 13 % inhibition at 0.2 μM (HTS)” value (MMP 13 [1]) does the source give for `CCCCCCC(C(=O)NO)S(=O)(=O)c1cccc(OC)c1` (centres unmarked) [Example 164, 2-(3-Methoxybenzenesulfonyl)tanoic acid hydroxyamide] here?
A: The value was 74%.

Q: Which “MMP 13 % inhibition at 36 nM (HTS)” value (MMP 13 [1]) does the source give for `CCCCCCC(SCCc1ccccn1)C(=O)NO` (centres unmarked) [Example 173, 2-(2-Pyridin-2-yl-ethylsulfanyl)-octanoic acid hydroxyaride] here?
A: Its value is 18%.

Q: With `CCCCCCC(SC1N=NN(c2ccccc2)N1)C(=O)NO` (centres unmarked) [Example 174, 2-(2-Phenyl-5H-tetrazol-5-ylsulfanyl)-octanoic acid hydroxyanide] as the compound, how does the “TACE % inhibition at 1 µM” value (TACE; 1 µM) read?
A: Its value is 27.7%.

Q: And the “MMP 13 % inhibition at 36 nM (HTS)” value (MMP 13 [1])?
A: The value was 10%.

Q: With `CCCCCCC(C(=O)NO)[S+]([O-])CC(=O)Nc1ccc2ccccc2c1` (centres unmarked) [Example 191, 2-(Naphthalen-2-ylcarbamoylmethanesulfimyl)-cmtanoic acid hydroxyamide] as the compound, how does the “MMP 13 % inhibition at 36 nM (HTS)” value (MMP 13 [1]) read?
A: The value was −45%.

Q: Which “MMP 13 % inhibition at 36 nM (HTS)” value (MMP 13 [1]) does the source give for `CCCCCCC(C(=O)NO)S(=O)(=O)c1nccs1` (centres unmarked) [Example 195, 2-(Thiazol-2-ylsulfonyl)-octanoic acid hydroxyamde] here?
A: The value was −9%.

Q: For `CCCCCCC(C(=O)NO)S(=O)(=O)c1cccc2cccnc12` (centres unmarked) [Example 196, 2-(Quinoline-8-sulfonyl)-octanoic acid hydroxyamde], which “MMP 13 % inhibition at 36 nM (HTS)” value (MMP 13 [1]) is on record?
A: The value was −18%.

Q: For `CCCCCCC(C(=O)NO)S(=O)(=O)CC1NC(=O)NC1=O` (centres unmarked) [Example 198, 2-(2,5-Dioxo-inidazolidinylmethylsulfonyl)-octanoic acid hydroxyamide], which “MMP 13 % inhibition at 36 nM (HTS)” value (MMP 13 [1]) is on record?
A: Its value is −39%.

Q: With `CCCCCCC(C(=O)NO)S(=O)(=O)c1ccc(OS(=O)(=O)c2ccccc2[N+](=O)[O-])cc1` (centres unmarked) [Example 238, 2-Nitro-benzenesulfonic acid 4-(1-hydroxycarbamoyl-heptylsulfonyl)-hydroxyamide] as the compound, how does the “MMP 13 % inhibition at 36 nM (HTS)” value (MMP 13 [1]) read?
A: The value was 22%.

Q: For `O=C(NO)C1(S(=O)(=O)c2ccc(OCc3ccccc3)cc2)CCN(Cc2ccccc2)CC1` [Example 241, 1-Benzyl-4-(4-benzyloxy-benzenesulfonyl)-piperidinefcarboxylic acid hydroxyamide], which melting point is on record?
A: Its melting point is 89 °C.

Q: What about the IC50 (TACE) of the same compound?
A: Its IC50 is 277 nM.

Q: What about the inhibition at 10 µM (MMP 1) of the same compound?
A: The inhibition at 10 µM was 48.2%.

Q: What about the IC50 (MMP 9) of the same compound?
A: The IC50 was 2.7 nM.

Q: Which melting point does the source give for `CCCCOc1ccc(S(=O)(=O)C2(C(=O)NO)CCN(C)CC2)cc1` [Example 244, 1-Methyl-4-(4-butoxy-benzenesulfonyl)-piperidine-4-carboxylic acid hydroxyamide] here?
A: The melting point was 118 °C.

Q: What about the IC50 (MMP 13 [2]) of the same compound?
A: The IC50 was 1.5 nM.

Q: What about the IC50 (TACE) of the same compound?
A: Its IC50 is 594 nM.

Q: And the IC50 (MMP 1)?
A: The IC50 was 3420 nM.

Q: What about the IC50 (MMP 9) of the same compound?
A: The IC50 was 9.8 nM.

Q: For `CCCCOc1ccc(S(=O)(=O)C2(C(=O)NO)CCN(CC)CC2)cc1` [Example 245, 1-Ethyl-4-(4-butoxy-benzenesulfonyl)-piperidine-4-carboxylic acid hydroxyamide], which melting point is on record?
A: Its melting point is 98 °C.

Q: What about the IC50 (MMP 13 [2]) of the same compound?
A: Its IC50 is 2.2 nM.

Q: And the inhibition at 10 µM (TACE; read-out: TACE % inhibition at 10 micromolar (*))?
A: The inhibition at 10 µM was 52%.

Q: And the IC50 (MMP 1)?
A: Its IC50 is 7060 nM.

Q: What about the IC50 (MMP 9) of the same compound?
A: The IC50 was 43.4 nM.

Q: What does the source list for `CCCCOc1ccc(S(=O)(=O)C2(C(=O)NO)CCN(CCCC)CC2)cc1` [Example 246, 1-n-Butyl-4-(4-butoxy-benzenesulfonyl)-piperidine-4-carboxylic acid hydroxyamide]?
A: melting point: 121 °C; IC50 (MMP 13 [2]): 2.4 nM; IC50 (TACE): 880 nM; inhibition at 10 µM (MMP 1): 50.3%; IC50 (MMP 9): 28.3 nM
